Data from patent US12077503B2, “Substituted cyclic amides and their use as herbicides” (FMC CORPORATION, priority 2015, dated 2024).

Assays:
Format in all cases: in vivo
[1] = tested on: ducksalad (Heteranthera limosa); assay: Test B flooded paddy test; conditions: Heteranthera limosa, Flood, 250 g ai/ha; scale of 0 to 100 where 0 is no effect and 100 is complete control; read-out: Ducksalad plant response rating
Procedure, shortened: (§1)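 Greenhouse paddy pots with 2-leaf stage plants received compound by direct addition to floodwater 3 cm deep, kept at that level. Scored visually at 13–15 d versus controls (0 no effect; 100 complete control).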

[2] = tested on: barnyardgrass (Echinochloa crus-galli); assay: Test B flooded paddy test; conditions: Echinochloa crus-galli, Flood, 250 g ai/ha; scale of 0 to 100 where 0 is no effect and 100 is complete control; read-out: Barnyardgrass plant response rating
Procedure, shortened: as §1

[3] = tested on: sedge, umbrella (small-flower umbrella sedge, Cyperus difformis); assay: Test B flooded paddy test; conditions: Cyperus difformis, Flood, 250 g ai/ha; scale of 0 to 100 where 0 is no effect and 100 is complete control; read-out: Sedge, Umbrella plant response rating
Procedure, shortened: as §1

[4] = tested on: rice (Oryra sativa); assay: Test B flooded paddy test; conditions: Oryza sativa, Flood, 250 g ai/ha; scale of 0 to 100 where 0 is no effect and 100 is complete control; read-out: Rice plant response rating
Procedure, shortened: as §1

[5] = tested on: pigweed (Amaranthus retroflexus); assay: Test A preemergence; conditions: Amaranthus retroflexus, pre-emergence, 240 h; for pest or weed control at 125 g/ha: 125 g ai/ha, Preemergence, visual injury rating after approximately 10 d, read-out: Pigweed plant response rating (0 to 100 scale, 0 is no effect, 100 is complete control); for pest or weed control at 500 g/ha: 500 g ai/ha, preemergence, visual injury rating about 10 d after treatment, 0 to 100 scale (0 no effect, 100 complete control), read-out: Pigweed plant response rating
[6] = tested on: Kochia (Kochia scoparia); assay: Test A preemergence; conditions: Bassia scoparia, pre-emergence, 240 h; for pest or weed control at 125 g/ha: 125 g ai/ha, Preemergence, visual injury rating after approximately 10 d, read-out: Kochia plant response rating (0 to 100 scale, 0 is no effect, 100 is complete control); for pest or weed control at 500 g/ha: 500 g ai/ha, preemergence, visual injury rating about 10 d after treatment, 0 to 100 scale (0 no effect, 100 complete control), read-out: Kochia plant response rating
Procedure, shortened: (§2)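 Seeded soil received test chemicals as a preemergence directed spray, and seedlings at one to two leaves, 2–10 cm tall, received them postemergence, in a non-phytotoxic, surfactant-containing solvent mixture. Pots were held in a greenhouse for approximately 10 d, then rated for injury from 0, no effect, to 100, complete control.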

[7] = tested on: barnyardgrass (Echinochloa crus-galli); assay: Test A preemergence; conditions: Echinochloa crus-galli, pre-emergence, 240 h; for pest or weed control at 125 g/ha: 125 g ai/ha, Preemergence, visual injury rating after approximately 10 d, read-out: Barnyardgrass plant response rating (0 to 100 scale, 0 is no effect, 100 is complete control); for pest or weed control at 500 g/ha: 500 g ai/ha, preemergence, visual injury rating about 10 d after treatment, 0 to 100 scale (0 no effect, 100 complete control), read-out: Barnyardgrass plant response rating
Procedure, shortened: as §2

[8] = tested on: ryegrass, Italian (Italian ryegrass, Lolium multiflorum); assay: Test A preemergence; conditions: Lolium multiflorum, pre-emergence, 240 h; for pest or weed control at 125 g/ha: 125 g ai/ha, Preemergence, visual injury rating after approximately 10 d, read-out: Ryegrass, Italian plant response rating (0 to 100 scale, 0 is no effect, 100 is complete control); for pest or weed control at 500 g/ha: 500 g ai/ha, preemergence, visual injury rating about 10 d after treatment, 0 to 100 scale (0 no effect, 100 complete control), read-out: Ryegrass, Italian plant response rating
Procedure, shortened: as §2

[9] = tested on: giant foxtail (Setaria faberii); assay: Test A preemergence; conditions: Setaria faberi, pre-emergence, 240 h; for pest or weed control at 125 g/ha: 125 g ai/ha, Preemergence, visual injury rating after approximately 10 d, read-out: Foxtail, Giant plant response rating (0 to 100 scale, 0 is no effect, 100 is complete control); for pest or weed control at 500 g/ha: 500 g ai/ha, preemergence, visual injury rating about 10 d after treatment, 0 to 100 scale (0 no effect, 100 complete control), read-out: Foxtail, Giant plant response rating
Procedure, shortened: as §2

[10] = tested on: ragweed (common ragweed, Ambrosia elatior); assay: Test A preemergence; conditions: Ambrosia artemisiifolia, pre-emergence, 240 h; for pest or weed control at 125 g/ha: 125 g ai/ha, Preemergence, visual injury rating after approximately 10 d, read-out: Ragweed plant response rating (0 to 100 scale, 0 is no effect, 100 is complete control); for pest or weed control at 500 g/ha: 500 g ai/ha, preemergence, visual injury rating about 10 d after treatment, 0 to 100 scale (0 no effect, 100 complete control), read-out: Ragweed plant response rating
Procedure, shortened: as §2

[11] = tested on: Kochia (Kochia scoparia); assay: Test A postemergence; conditions: Bassia scoparia, post-emergence, 240 h, 125 g ai/ha, Postemergence; visual injury after approximately 10 d; 0 to 100 scale where 0 is no effect and 100 is complete control; read-out: Plant response rating, Kochia
Procedure, shortened: as §2

[12] = tested on: barnyardgrass (Echinochloa crus-galli); assay: Test A postemergence; conditions: Echinochloa crus-galli, post-emergence, 240 h, 125 g ai/ha, Postemergence; visual injury after approximately 10 d; 0 to 100 scale where 0 is no effect and 100 is complete control; read-out: Plant response rating, Barnyardgrass
Procedure, shortened: as §2

[13] = tested on: giant foxtail (Setaria faberii); assay: Test A postemergence; conditions: Setaria faberi, post-emergence, 240 h, 125 g ai/ha, Postemergence; visual injury after approximately 10 d; 0 to 100 scale where 0 is no effect and 100 is complete control; read-out: Plant response rating, Foxtail, Giant
Procedure, shortened: as §2

[14] = tested on: ragweed (common ragweed, Ambrosia elatior); assay: Test A postemergence; conditions: Ambrosia artemisiifolia, post-emergence, 240 h, 125 g ai/ha, Postemergence; visual injury after approximately 10 d; 0 to 100 scale where 0 is no effect and 100 is complete control; read-out: Plant response rating, Ragweed
Procedure, shortened: as §2

Row | Structure (SMILES) | pest or weed control at 250 g/ha [1] | pest or weed control at 250 g/ha [2] | pest or weed control at 250 g/ha [3] | pest or weed control at 250 g/ha [4] | pest or weed control at 125 g/ha [5] | pest or weed control at 500 g/ha [5] | pest or weed control at 125 g/ha [6] | pest or weed control at 500 g/ha [6] | pest or weed control at 125 g/ha [7] | pest or weed control at 500 g/ha [7] | pest or weed control at 125 g/ha [8] | pest or weed control at 500 g/ha [8] | pest or weed control at 125 g/ha [9] | pest or weed control at 500 g/ha [9] | pest or weed control at 125 g/ha [10] | pest or weed control at 500 g/ha [10] | pest or weed control at 125 g/ha [11] | pest or weed control at 125 g/ha [12] | pest or weed control at 125 g/ha [13] | pest or weed control at 125 g/ha [14]
1 | CN1C[C@H](c2csc(C(F)(F)F)c2)[C@@H](C(=O)Nc2cccc(F)c2F)C1=O [Compound 959] | 100% | 60% | 0% | 20% | 0% | 30% | 70% | 90% | 90% | 100% | 20% | 60% | 90% | 100% | 70% | 70% | 50% | 90% | 80% | 0%
2 | CN1C[C@H](c2cc(C(F)(F)F)cs2)[C@@H](C(=O)Nc2ccccc2F)C1=O [Compound 962] | 90% | 60% | 0% | 10% | 0% | 50% | 50% | 70% | 90% | 90% | 0% | 30% | 90% | 90% | 20% | 30% | 20% | 90% | 90% | 0%
3 | CC(C)COc1cccc([C@H]2CNC(=O)[C@@H]2C(=O)Nc2cccc(F)c2F)c1 [Compound 965] | 85% | 20% | 0% | 0% | 0% | 0% | 0% | 60% | 90% | 90% | 70% | 90% | 90% | 90% | 0% | 0% | 0% | 80% | 70% | 0%
4 | CC(C)COc1cccc([C@H]2CNC(=O)[C@@H]2C(=O)Nc2ccc(F)cc2F)c1 [Compound 966] | 60% | 0% | 0% | 0% | 0% | 0% | 30% | 30% | 80% | 90% | 20% | 60% | 80% | 90% | 0% | 0% | 0% | 60% | 40% | 0%
5 | CN1C[C@H](c2cc(F)cc(F)c2)[C@@H](C(=O)Nc2ccc(C(F)(F)F)cc2)C1=O [Compound 968] | 30% | 0% | 0% | 0% | 0% | 0% | 0% | 0% | 20% | 60% | 0% | 0% | 30% | 60% | 0% | 0% | 0% | 20% | 0% | 0%
